Data as given in PubChem BioAssay AID1963980 (Molecular Pharmacology Branch, DTP, NCI, 2024).
Blank lines part the entries; values can stand above or below the compound they belong to.

System: 475296-252-R-J1-PDC spheroid viability
Experiment: Anticancer human tumor 475296-252-R-J1-PDC patient-derived rectal carcinoma cell line growth inhibition [PI3K]
Settings: spheroids with HUVEC and MSC; for IC50: curve of first compound; for viability, T/C: stronger effect = lower value
In short: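 High-throughput combination screen: PI3K inhibitors crossed with targeted small molecules on complex spheroids of tumor cells, HUVEC and MSCs at 37 degrees C, 5% CO2. Top concentration was at or near clinical Cmax (otherwise 10 microM), with half-log decrements.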

[1] = second compound 0.00316 µM, first compound 0.0316 µM
[2] = second compound 0.00316 µM, first compound 0.1 µM
[3] = second compound 0.00316 µM, first compound 0.316 µM
[4] = second compound 0.00316 µM, first compound 1 µM
[5] = second compound 0.00316 µM, first compound 3.16 µM
[6] = second compound 0.00316 µM, first compound 10 µM
[7] = second compound 0.01 µM, first compound 0.0316 µM
[8] = second compound 0.01 µM, first compound 0.1 µM
[9] = second compound 0.01 µM, first compound 0.316 µM
[10] = second compound 0.01 µM, first compound 1 µM
[11] = second compound 0.01 µM, first compound 3.16 µM
[12] = second compound 0.01 µM, first compound 10 µM
[13] = second compound 0.0316 µM, first compound 0.0316 µM
[14] = second compound 0.0316 µM, first compound 0.1 µM
[15] = second compound 0.0316 µM, first compound 0.316 µM
[16] = second compound 0.0316 µM, first compound 1 µM
[17] = second compound 0.0316 µM, first compound 3.16 µM
[18] = second compound 0.0316 µM, first compound 10 µM
[19] = second compound 0.1 µM, first compound 0.0316 µM
[20] = second compound 0.1 µM, first compound 0.1 µM
[21] = second compound 0.1 µM, first compound 0.316 µM
[22] = second compound 0.1 µM, first compound 1 µM
[23] = second compound 0.1 µM, first compound 3.16 µM
[24] = second compound 0.1 µM, first compound 10 µM
[25] = second compound 0.316 µM, first compound 0.0316 µM
[26] = second compound 0.316 µM, first compound 0.1 µM
[27] = second compound 0.316 µM, first compound 0.316 µM
[28] = second compound 0.316 µM, first compound 1 µM
[29] = second compound 0.316 µM, first compound 3.16 µM
[30] = second compound 0.316 µM, first compound 10 µM
[31] = second compound 1 µM, first compound 0.0316 µM
[32] = second compound 1 µM, first compound 0.1 µM
[33] = second compound 1 µM, first compound 0.316 µM
[34] = second compound 1 µM, first compound 1 µM
[35] = second compound 1 µM, first compound 3.16 µM
[36] = second compound 1 µM, first compound 10 µM
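Note: spheroids exposed to agents for seven days before readout.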

- IC50 (second compound 0.00316 µM): > 10000 nM
- IC50 (second compound 0.01 µM): > 10000 nM
- IC50 (second compound 0.0316 µM): > 10000 nM
- IC50 (second compound 0.1 µM): > 10000 nM
- IC50 (second compound 0.316 µM): > 10000 nM
- IC50 (second compound 1 µM): 6180 nM
SMILES: CC(C)NCC(C(=O)N1CCN(c2ncnc3c2C(C)CC3O)CC1)c1ccc(Cl)cc1 (stereo not drawn) + COc1c(OCCCN2CCOCC2)ccc2c3n(c(=NC(=O)c4cnc(N)nc4)nc12)CCN3
- viability, T/C [1]: 98.5%
- viability, T/C [2]: 94.5%
- viability, T/C [3]: 94.1%
- viability, T/C [4]: 92.2%
- viability, T/C [5]: 67.2%
- viability, T/C [6]: 55.1%
- viability, T/C [7]: 106%
- viability, T/C [8]: 99%
- viability, T/C [9]: 96.5%
- viability, T/C [10]: 84.7%
- viability, T/C [11]: 65.6%
- viability, T/C [12]: 60%
- viability, T/C [13]: 108%
- viability, T/C [14]: 102%
- viability, T/C [15]: 87.2%
- viability, T/C [16]: 79.5%
- viability, T/C [17]: 77%
- viability, T/C [18]: 78.2%
- viability, T/C [19]: 92.8%
- viability, T/C [20]: 77.9%
- viability, T/C [21]: 87.6%
- viability, T/C [22]: 72.1%
- viability, T/C [23]: 75.2%
- viability, T/C [24]: 62%
- viability, T/C [25]: 68.6%
- viability, T/C [26]: 75%
- viability, T/C [27]: 70.2%
- viability, T/C [28]: 71.4%
- viability, T/C [29]: 62.7%
- viability, T/C [30]: 59.7%
- viability, T/C [31]: 60.4%
- viability, T/C [32]: 56%
- viability, T/C [33]: 67%
- viability, T/C [34]: 63.5%
- viability, T/C [35]: 55.8%
- viability, T/C [36]: 38.2%

- IC50 (second compound 0.00316 µM): > 1000 nM
- IC50 (second compound 0.01 µM): > 1000 nM
- IC50 (second compound 0.0316 µM): > 1000 nM
- IC50 (second compound 0.1 µM): > 1000 nM
- IC50 (second compound 0.316 µM): > 1000 nM
- IC50 (second compound 1 µM): > 1000 nM
SMILES: CCN1CCN(Cc2ccc(Nc3ncc(F)c(-c4cc(F)c5nc(C)n(C(C)C)c5c4)n3)nc2)CC1 + COc1c(OCCCN2CCOCC2)ccc2c3n(c(=NC(=O)c4cnc(N)nc4)nc12)CCN3
- viability, T/C (second compound 0.00316 µM, first compound 0.00316 µM): 99.3%
- viability, T/C (second compound 0.00316 µM, first compound 0.01 µM): 102%
- viability, T/C [1]: 97.5%
- viability, T/C [2]: 104%
- viability, T/C [3]: 100%
- viability, T/C [4]: 90.6%
- viability, T/C (second compound 0.01 µM, first compound 0.00316 µM): 95.6%
- viability, T/C (second compound 0.01 µM, first compound 0.01 µM): 95%
- viability, T/C [7]: 93.1%
- viability, T/C [8]: 95.2%
- viability, T/C [9]: 104%
- viability, T/C [10]: 76.4%
- viability, T/C (second compound 0.0316 µM, first compound 0.00316 µM): 83.8%
- viability, T/C (second compound 0.0316 µM, first compound 0.01 µM): 92.5%
- viability, T/C [13]: 99.2%
- viability, T/C [14]: 95.1%
- viability, T/C [15]: 86.9%
- viability, T/C [16]: 64.4%
- viability, T/C (second compound 0.1 µM, first compound 0.00316 µM): 86.3%
- viability, T/C (second compound 0.1 µM, first compound 0.01 µM): 94.4%
- viability, T/C [19]: 84.8%
- viability, T/C [20]: 87.2%
- viability, T/C [21]: 85.9%
- viability, T/C [22]: 63.8%
- viability, T/C (second compound 0.316 µM, first compound 0.00316 µM): 74.3%
- viability, T/C (second compound 0.316 µM, first compound 0.01 µM): 78.4%
- viability, T/C [25]: 72.5%
- viability, T/C [26]: 65.3%
- viability, T/C [27]: 63%
- viability, T/C [28]: 50%
- viability, T/C (second compound 1 µM, first compound 0.00316 µM): 62.8%
- viability, T/C (second compound 1 µM, first compound 0.01 µM): 58.2%
- viability, T/C [31]: 63.6%
- viability, T/C [32]: 55.8%
- viability, T/C [33]: 56%
- viability, T/C [34]: 55.2%

- IC50 (second compound 0.00316 µM): > 10000 nM
- IC50 (second compound 0.01 µM): > 10000 nM
- IC50 (second compound 0.0316 µM): 2090 nM
- IC50 (second compound 0.1 µM): 2920 nM
- IC50 (second compound 0.316 µM): 1360 nM
- IC50 (second compound 1 µM): 888 nM
SMILES: Cn1ncc(Cl)c1-c1cc(C(=O)NC(CN)Cc2cccc(F)c2)sc1Cl (stereo not drawn) + COc1c(OCCCN2CCOCC2)ccc2c3n(c(=NC(=O)c4cnc(N)nc4)nc12)CCN3
- viability, T/C [1]: 86.5%
- viability, T/C [2]: 70.6%
- viability, T/C [3]: 80.1%
- viability, T/C [4]: 67.9%
- viability, T/C [5]: 66.1%
- viability, T/C [6]: 55.7%
- viability, T/C [7]: 93.4%
- viability, T/C [8]: 91.5%
- viability, T/C [9]: 62.1%
- viability, T/C [10]: 58.5%
- viability, T/C [11]: 59.4%
- viability, T/C [12]: 59.2%
- viability, T/C [13]: 82.9%
- viability, T/C [14]: 89.4%
- viability, T/C [15]: 90.4%
- viability, T/C [16]: 59%
- viability, T/C [17]: 53%
- viability, T/C [18]: 36.9%
- viability, T/C [19]: 80%
- viability, T/C [20]: 79.4%
- viability, T/C [21]: 72.6%
- viability, T/C [22]: 56.4%
- viability, T/C [23]: 54.3%
- viability, T/C [24]: 27.1%
- viability, T/C [25]: 69.2%
- viability, T/C [26]: 69.4%
- viability, T/C [27]: 62.1%
- viability, T/C [28]: 54%
- viability, T/C [29]: 39.5%
- viability, T/C [30]: 22.5%
- viability, T/C [31]: 61.4%
- viability, T/C [32]: 53.8%
- viability, T/C [33]: 67.8%
- viability, T/C [34]: 42.4%
- viability, T/C [35]: 36.1%
- viability, T/C [36]: 16.4%

- IC50 (second compound 0.00316 µM): > 10000 nM
- IC50 (second compound 0.01 µM): > 10000 nM
- IC50 (second compound 0.0316 µM): 2780 nM
- IC50 (second compound 0.1 µM): 1020 nM
- IC50 (second compound 0.316 µM): 612 nM
- IC50 (second compound 1 µM): 129 nM
SMILES: Cn1nccc1Nc1nccc(-c2ccn(C(CO)c3ccc(Cl)c(F)c3)c(=O)c2)n1 (stereo not drawn) + COc1c(OCCCN2CCOCC2)ccc2c3n(c(=NC(=O)c4cnc(N)nc4)nc12)CCN3
- viability, T/C [1]: 88.1%
- viability, T/C [2]: 107%
- viability, T/C [3]: 95.3%
- viability, T/C [4]: 94.8%
- viability, T/C [5]: 77.2%
- viability, T/C [6]: 58.3%
- viability, T/C [7]: 88.5%
- viability, T/C [8]: 88.2%
- viability, T/C [9]: 88.4%
- viability, T/C [10]: 85.7%
- viability, T/C [11]: 70.6%
- viability, T/C [12]: 50.5%
- viability, T/C [13]: 92.5%
- viability, T/C [14]: 89.7%
- viability, T/C [15]: 80.2%
- viability, T/C [16]: 84.6%
- viability, T/C [17]: 45.6%
- viability, T/C [18]: 42.7%
- viability, T/C [19]: 78%
- viability, T/C [20]: 81%
- viability, T/C [21]: 64.3%
- viability, T/C [22]: 53.6%
- viability, T/C [23]: 24%
- viability, T/C [24]: 8.76%
- viability, T/C [25]: 74.7%
- viability, T/C [26]: 78.5%
- viability, T/C [27]: 58.8%
- viability, T/C [28]: 43.8%
- viability, T/C [29]: 7.08%
- viability, T/C [30]: 3.11%
- viability, T/C [31]: 54.9%
- viability, T/C [32]: 51.5%
- viability, T/C [33]: 42.6%
- viability, T/C [34]: 29.2%
- viability, T/C [35]: 10%
- viability, T/C [36]: 5.49%
